Experiments:
Assay type in all cases: in vivo, mouse
[1] = LC/MS/MS quantification of drug exposure in 4T1 tumor-bearing mice; conditions: in absence or presence of anti-PD1
Procedure: (§1) Tumor, liver, and feces samples are diluted in phosphate buffer and homogenized using ultrasonic processor. Plasma and homogenized tissue samples along with a set of standard and quality control samples are extracted by way of protein precipitation technique on Ostro plate (Waters) using 1% formic acid in acetonitrile spiked with internal standard. 2 μL of the filtered samples are injected using an autosampler and separated chromatographically using a Phenomenex, Synergi™, […], 50×3 mm, Polar-RP column, isocratic mobile phase combination of 0.1% formic acid in water and 0.1% formic acid in acetonitrile (40/60) with flow rate of 0.8 mL/min. The Sciex Qtrap 6500 mass spectrometer is used as the detector with positive electrospray in MRM ionization mode and an ion source temperature of 650° C. Quantification of Compound A is carried out using a calibration curve established with standards for the corresponding analyte concentration, retention time and mass profile.

[2] = tested on: 4T1 murine breast cancer cells; experiment: 4T1 syngeneic breast cancer tumor growth and survival in mice; conditions: 4T1 tumors
Procedure: (§2) 4T1 murine breast cancer cells are obtained from the American Type Culture Collection (ATCC) and maintained in RPMI medium containing 10% fetal bovine serum, 4 mM glutamine, and 1% penicillin/streptomycin. The cells were cultured in tissue culture flasks in a humidified incubator at 37° C., in an atmosphere of 5% CO2 and 95% air. The 4T1 tumor cells used for implantation are harvested and re-suspended at a concentration of 50×10^3 cells/mL in cold PBS. Nine weeks old female Balb/c mice (Balb/cJ, Jackson Laboratory) are injected subcutaneously in the right flank with 10×10^3 cells in 0.2 mL cold PBS. […] Mice are randomized in groups after the tumors are measured with a caliper in two dimensions to monitor size. Tumor size is calculated using the formula: Tumor Volume (mm^3)=(w^2×1)/2 where w=width and l=length, in mm. Tumors are measured twice per week for the duration of the study. Each mouse is euthanized as it reached a tumor volume endpoint of 1500 mm^3 or if they show any type of discomfort, whichever comes first.
(§3) The anti-PD-1 RMP1-14 (Lot No. 800121F12A) and isotype (Lot No. 749620N1) antibody are purchased from BioXCell. The stock solution is diluted in PBS to yield a dosing solution of 0.1 or 1 mg/mL, which delivered 1 or 10 mg/kg respectively in a dosing volume of 0.2 mL (10 mL/kg, for a […]). Mice are administered isotype or anti-PD-1 RMP1-14 intraperitoneally in 0.2 mL (10 mL/kg, for a […]) twice a week.
as §2, with “(mm^3) (w^2×1)/2” for “(mm^3)=(w^2×1)/2”

[3] = tested on: E0771 murine breast cancer cells; experiment: E0771 syngeneic breast cancer tumor growth in mice; conditions: E0771 tumors
Procedure: E0771 murine breast cancer cells are obtained from the American Type Culture Collection (ATCC) and maintained in DMEM medium containing 10% fetal bovine serum, 4 mM glutamine, 20 mM HEPES, and 1% penicillin/streptomycin. The cells are cultured in tissue culture flasks in a humidified incubator at 37° C., in an atmosphere of 5% CO2 and 95% air. The E0771 tumor cells used for implantation are harvested and re-suspended at a concentration of 2.5×10^6 cells/mL in cold PBS. Nine weeks old female C57Bl/6 mice (C57Bl/6J, Jackson Laboratory) are injected subcutaneously in the right flank with 0.5×10^6 cells in 0.2 mL cold PBS. 10 days later the mice have a palpable size tumor, and specified size to start treatments (around 100 mm^3). Mice are randomized in groups after the tumors are measured with a caliper in two dimensions to monitor size. Tumor size is calculated using the formula: Tumor Volume (mm^3)=(w^2×1)/2 where w=width and l=length, in mm. Tumors are measured twice per week for the duration of the study. Each mouse is euthanized as it reached a tumor volume endpoint of 1500 mm^3 or if they show any type of discomfort, whichever comes first.
[…] Compound A is synthesized at Intra-Cellular Therapies Inc. Compound A diets are used to treat mice. Compound A diet 900 ppm (diet supplements 900 mg of Compound A per kg to Picolab Rodent Diet 5053) is produced by Envigo (Madison WI). Mice are dosed 5 days a week with vehicle or Compound A.
as §3
Mice are treated with Compound B alone, anti-PD-1 antibody alone, or the combination of Compound B and anti-PD-1 antibody. Compound B is synthesized at Intra-Cellular Therapies Inc. Compound B diets are used to treat mice. […]

[4] = LC/MS/MS quantification of drug exposure in E0771 tumor-bearing mice
Procedure: as §1
Tumor, liver, and feces samples are diluted in phosphate buffer and homogenized using ultrasonic processor. […] Quantification of Compound B is carried out using a calibration curve established with standards for the corresponding analyte concentration, retention time and mass profile.

[5] = Example 2, Compound A 300 ppm or 900 ppm in diet, monotherapy or with anti-PD1 10 mg/kg

exposure in plasma and tissues ([1]; Example 4, Compound B in diet) | exposure in plasma and tissues ([4]; Example 3, Compound B in diet, in absence or presence of anti-PD1) | SMILES | exposure in plasma and tissues ([1]; Example 2, Compound A in diet) | survival of animals [2, 5] | tumor volume or weight relative to isotype (control) [2, 5] | tumor volume ([3]; Example 1, C57Bl/6 mice, Compound A 900 ppm in diet, anti-PD1 10 mg/kg ip, alone or combined, day 3, 7, 10, 14, 17, vs isotype control) | tumor weight at terminal sacrifice ([3]; Example 1, Compound A 900 ppm in diet, anti-PD1 10 mg/kg, alone or combined, treatment day 17, vs isotype control) | drug exposures in plasma, tissues, and feces ([4]; Example 1, Compound A 900 ppm in diet, all groups receiving Compound A) | tumor volume ([2]; Example 4, Compound B 100, 300 or 900 ppm in diet, anti-PD1 10 mg/kg, alone or combined, anti-PD1 alone: after day 5, vs isotype and/or anti-PD1 alone) | tumor weight at terminal sacrifice ([2]; Example 4, Compound B 100, 300 or 900 ppm in diet, anti-PD1 10 mg/kg, alone or combined, treatment day 14, vs isotype and/or anti-PD1 alone) | tumor volume or weight relative to isotype (control) and/or anti-PD1 alone ([3]; Example 3, Compound B 100, 300 or 900 ppm in diet, monotherapy or with anti-PD1 1 mg/kg)
– | – | CN1C(=O)c2c(nn(Cc3ccc(-c4cccc(F)n4)cc3)c2Nc2ccccc2)N2C1=N[C@@H]1CCC[C@@H]12 [Compound A] | comparable | improved | significantly reduce | Neither Compound A (900 ppm) treatment alone nor anti-PD-1 antibody (10 mg/kg) treatment alone shows a significant effect | Neither Compound A (900 ppm) treatment alone nor anti-PD-1 antibody (10 mg/kg) treatment alone shows a significant effect | comparable | – | – | –
comparable | comparable | CC(=O)c1ccc(Cn2nc3c(c2Nc2ccc(F)cc2)C(=O)N(C)C2=NC(C)(C)CN23)cc1 [Compound B] | – | – | – | – | – | – | significantly reduces | significantly reduces | significantly reduces

— patent US20250186446A1, “ORGANIC COMPOUNDS” (INTRA-CELLULAR THERAPIES, INC., priority 2022, published 2025)
